Results: patent US6590071B1, “Reversible aqueous pH sensitive lipidizing reagents, compositions and methods of use” (University of Southern California, priority 1998, dated 2003)
No end group written: not given here.

Experiments:
fasted diabetic rats = test: Blood glucose level in fasted diabetic rats after oral administration; format: in vivo, rat; details: 10 U/kg oral, water/oil microemulsion, in 9 hours (FIG. 6)
Description: The blood glucose level of rats was increased one week after inducing diabetes from an average of 100 mg/dl to 420 mg/dl (non-fasted rats). […] This is possibly due to the time required for REAL-insulin to be hydrolyzed and to release free insulin. After injection of insulin the fast blood glucose level of rats was back to original within 24 h. However, in the case of the rats treated with REAL-insulin, the drug effect on the fast blood glucose level lasted for 3 days (FIG. 5). Fasted diabetic rats were also administered by oral means 10 U/kg of insulin, REAL-insulin and placebo. Rats were fasted 16 h prior to oral administration. A water/oil microemulsion was used as the drug carrier.

[1] = system: hyperglycemic (diabetic) Sprague Dawley rats; test: Blood glucose level in streptozotocin-induced diabetic rats after subcutaneous injection; format: in vivo, rat
Description: Diabetes was induced in Sprague Dawley rats using i.v. injection of 60 mg/kg, streptozotocin. Solutions of 0.5 Unit/ml insulin or REAL-insulin in borate buffer (pH 10, 0.1M) were prepared. Rats were fasted 16 h prior to the experiment and were injected subcutaneously 0.5 Unit/kg of insulin or REAL-insulin. The blood glucose level of rats was monitored at different time points for 9 h. After this time rats were fed and the blood glucose level was measured after 15 h of feeding. The rats were again fasted and blood glucose level was measured after 16 h. The period of fasting and feeding was continued for 3 days.

[2] = system: vasopressin deficient Brattleboro rats; test: In vivo effect on urine output in vasopressin deficient Brattleboro rats; set-up: species or system rat; details: 5 μg/kg subcutaneous; for time after injection at which urine excretion was back to original: Brattleboro rats (FIG. 3); for delay in urine excretion: first 8 h (FIG. 2)
Description: REAL-AVP was injected subcutaneously in animals (5 μg/kg) and urine was collected at different time points. […] AVP and Pal-AVP have similar effects with a delay in urine excretion of 4 h. A longer delay in urine excretion, up to 6 h, was observed after injection of REAL-AVP. […] The amount of urine excretion was back to original 24 h after injection of Pal-AVP and AVP. However, the effect of REAL-AVP lasted for 3 days (FIG. 3).

insulin was tested, and the “reduction of the blood glucose level” value (fasted diabetic rats) was “no significant reduction”, the “time for fast blood glucose level to be back to original” value ([1]; 0.5 U/kg subcutaneous, diabetic rats (FIG. 5)) was no more than 24 h and the “change in blood glucose level within the first hour” value ([1]; subcutaneous, fasted diabetic rats (FIG. 4)) was “significant drop”.
With `NC(=O)CC[C@@H]1NC(=O)[C@H](Cc2ccccc2)NC(=O)[C@H](Cc2ccc(O)cc2)NC(=O)[C@@H](N)CSSC[C@@H](C(=O)N2CCC[C@H]2C(=O)N[C@@H](CCCN=C(N)N)C(=O)NCC(N)=O)NC(=O)[C@H](CC(N)=O)NC1=O` [AVP, Arginine vasopressin] the “time after injection at which urine excretion was back to original” value [2] was 24 h and the “delay in urine excretion” value ([2]; Brattleboro rats) was 4 h.
In the case of “Pal-AVP: Direct lipidization of AVP to palmitic acid (CYFQNCPRG; ends and bridges not checked; also: palmitoylated, position not given here; UniProt P01185 20-28, looked up)”, the “effectiveness compared with REAL-AVP” value ([2]; Brattleboro rats) is reported as “not as effective as REAL-AVP”, the “time after injection at which urine excretion was back to original” value [2] is reported as 24 h and the “delay in urine excretion” value ([2]; Brattleboro rats) is reported as 4 h.
